Patent US11135196B1, “Pharmaceutical composition and its use to inhibit membrane ACE2 expression” (priority 2020, dated 2021)

Tests used:
[1] = tested on: ACE2 receptor; experiment: ACE2 ELISA assay in Human Small Airways Epithelial Cells (SAEC), 6 days; details: for decrease of ACE2 expression: FIG. 5A
Procedure: Human Small Airways Epithelial Cells (SAEC), purchased from ATCC, (Manassas, Va., USA) were cultured in Airways Epithelial Cells growth medium (ATCC) in plastic flasks at 37° C. and 5% CO2. For the experiments, the cells (passage 5-7) were plated to collagen-covered 96-well plates in 100 μL/well growth medium and were grown to confluent layer for 4 to 7 days.
For the experiments, cells were supplemented with indicated doses of tested compounds in 100 μL/well of cell growth medium for 6 days with fresh media supplementations every 2 to 3 days. […] Culture plate wells were washed twice with phosphate buffered saline (PBS) and fixed with 3% formaldehyde/0.5% Triton X-100/PBS solution for 1 hour at 4° C., then washed 4 times with PBS. Two-hundred microliter of 1% bovine serum albumin-BSA (Sigma-Aldrich, St. Louis, Mo., USA) in PBS was added and the plate was incubated at 4° C. overnight. Rabbit polyclonal anti-ACE-2 antibodies (Sigma Aldrich, St. Louis, Mo., USA) were added in 100 μL/well 1% BSA/PBS solution for 1.5 hours incubation at room temperature (RT). After 3 wash cycles with 0.1% BSA/PBS wells were supplied with 100 μL/well of anti-rabbit IgG antibodies conjugated with horse radish peroxidase (HRP, Sigma, St. Louis, Mo., USA) for 1 hour at RT. After 3 wash cycles with 0.1% BSA/PBS the HRP activity retained was determined by incubation with 100 μL/well TMB substrate solution (Sigma-Aldrich, St. Louis, Mo., USA) for 20 minutes. at RT, followed by the addition of 50 μL/well of 1N H2504 and optical density measurement at 450 nm with microplate reader (Molecular Devices, San Jose, Calif., USA).
Results are expressed as a percentage of experimental addition—free control (mean±SD, n=6). Non-specific control (wells incubated without anti-ACE2 antibodies) mean value (n=6) was subtracted from all sample values.

[2] = tested on: ACE2 protein; experiment: Western blot of ACE2 protein expression in HMEC; details: 1.0 mM, 6 days
Procedure: (§2) Human Small Airways Epithelial Cells (SAEC), purchased from ATCC, (Manassas, Va., USA) were cultured in Airways Epithelial Cells growth medium (ATCC) in plastic flasks at 37° C. and 5% CO2. For the experiments, the cells (passage 5-7) were plated to collagen-covered 96-well plates in 100 μL/well growth medium and were grown to confluent layer for 4 to 7 days. Human Microvascular Endothelial Cells isolated from lung (HMEC), purchased from Lonza, (Hayward, Calif., USA) were cultured in EGM-2 MV growth medium (Lonza) in plastic flasks at 37° C. and 5% CO2. […]
(§3) Western blot: SAEC and HMEC were plated on 6-well plates and supplemented with 0.3, 0.6, 0.8, and 1 mM ascorbic acid, respectively. […] The protein concentration was measured by the Dc protein assay (Bio-Rad, Hercules, Calif., USA). Fifty microgram per well of protein was separated on 8% to 16% gradient SDS-PAGE gels (ie, Tris-based electrophoresis using standard Laemmle's method without (3-ME addition to sample buffer) and transferred to a PVDF membrane. Proteins were detected with commercially available anti-ACE-2 monoclonal antibody diluted 1:250 (R&D, Minneapolis, Minn., USA) and anti-β-actin antibody as a loading control (Cell Signaling, Danvers, Mass., USA).

[3] = tested on: ACE2 protein; experiment: Western blot of ACE2 protein expression in SAEC; details: 1.0 mM, 6 days
Procedure: as §2, §3

[4] = tested on: ACE2 mRNA; experiment: qRT-PCR of ACE2 gene expression in HMEC; type: cell-based, human; details: 1.0 mM, 6 days, normalised to β-actin
Procedure: (§1) After 6 days, total RNA was isolated using RNeasy Plus Mini Kit (Qiagen, Germantown, Md., USA). Next, 2500 ng of each isolate was transcribed in cDNA using RT^2 HT First Strand Kit (Qiagen, Germantown, Md., USA) and subjected to qRTPCR using specific primers for ACE2 (forward primer, SEQ ID. NO. 1-5′-[…] -3′; and reverse primer, SEQ ID. NO. 2-5′-[…] -3) and β-actin (forward primer, SEQ ID. NO. 3-5′-[…] -3′; and reverse primer, SEQ ID. NO. 4-5′-[…] -3′). The PCR was performed with a QuantiTect SYBR® Green PCR Kit as the source of 2.5 mM Mg2+, deoxynucleotides and HotStarTaq DNA polymerase, in addition to each primer used at a concentration of 0.3 μM in a 50 μL qPCR mixture (Qiagen, Germantown, Md., USA) in a BioRad CFX instrument (BioRad, Hercules, Calif., USA). The qPCR cycler conditions were programmed according to the manufacturer's recommendations and were as follows: an activation step at 95° C. for 15 minutes, 40 cycles of: denaturation at 94° C. for 15 seconds, annealing at 60° C. for 30 seconds, and extension at 72° C. for 30 seconds. To verify the specificity and identity of the qPCR product, melting curve analyses were performed. The amount of β-actin cDNA was used to normalize the sample amounts used for determinations. All samples were tested in duplicate PCR reactions and the mean of the reactions was used for calculating the expression levels.

[5] = tested on: ACE2 mRNA; experiment: qRT-PCR of ACE2 gene expression in SAEC; type: cell-based, human; details: 1.0 mM, 6 days, normalised to β-actin
Procedure: as §1

[6] = tested on: ACE2 receptor; experiment: ACE-2 ELISA assay in Human Aortic Endothelial Cells, 7 days supplementation; type: cell-based; details: 50-100 mcM, FIG. 1
Procedure: Cell supplementation with ascorbic acid: Cells were supplemented with indicated doses of ascorbic acid (Sigma) in EGM-2 for 7 days with six repetitions for each dose. Experimental medium was changed every 2-3 days with freshly prepared ascorbic acid solution in EGM-2.
Mouse monoclonal anti ACE-2 antibody (Santa Cruz Biotechnology) was added in 100 mcl 1% BSA/PBS for 1.5 h incubation at room temperature (RT). […] After three wash cycles with 0.1% BSA/PBS retained HRP activity was determined by incubation 100 mcl TMB substrate solution (Sigma) for 20 min at RT and addition of 50 mcl of 1N H2SO4 by measuring optical density at 450 nm with micro plate reader (Molecular Devices). Results are expressed as percentage of ascorbate-free Control (mean+/−SD, n=6).

[7] = tested on: SAEC; experiment: Cytotoxic effects on SAEC; type: cell-based, human

O=c1c(O)cc([C@H]2Oc3cc(O)cc(O)c3C[C@H]2O)cc2c([C@H]3Oc4cc(O)cc(O)c4C[C@H]3O)cc(O)c(O)c12 [Theaflavin]
inhibition of ACE2 expression, used individually ([1]; 33 μg/mL and 50 μM respectively, FIG. 10): about 50%

O=C1O[C@H]([C@@H](O)CO)C(O)=C1O [ascorbic acid]
reduction of ACE2 protein (Western blot) [2]: 60% | reduction of ACE2 protein (Western blot) ([2]; listed as ascorbate): significantly lower | reduction of ACE2 protein (Western blot) [3]: 55% | reduction of ACE2 protein (Western blot) ([3]; listed as ascorbate): significantly lower | ACE2 gene expression decreased by (fold) [4]: 0.54 fold | decrease of ACE2 expression ([1]; 0.6 mM): about 18% | decrease of ACE2 expression ([1]; 1.0 mM): 27% | decrease of membrane expression of ACE2 ([1]; 800 mcM, FIG. 4): 27% | ACE2 gene expression decreased by (fold) [5]: 0.61 fold | suppression of the expression of the ACE2 receptor [6]: over 50%

O=c1cc(-c2ccccc2)oc2cc(O)c(O)c(O)c12 [baicalein]
inhibition of ACE2 expression, used individually ([1]; 25 μM, compared to no ascorbate control, FIG. 7): 75%

CCCCCCCCCCCCCCCC(=O)OC[C@H](O)[C@H]1OC(=O)C(O)=C1O [ascorbyl palmitate]
inhibition of ACE2 expression ([1]; 75 μM, FIG. 5B): 50% | concentrations showing cytotoxic effects [7]: > 100 µM

CC(=O)N[C@@H](CS)C(=O)O [NAC]
inhibition of ACE2 expression, used individually ([1]; 2 mM): 18%

C=CCCCCCCCCC(=O)O [10-undecanoic acid]
decrease of ACE2 expression, individual effect ([1]; concentration not given, FIG. 9): 18%
